Experimental data as given in publication PMC7931047, “Discovery of Substituted (2-Aminooxazol-4-yl)Isoxazole-3-carboxylic Acids as Inhibitors of Bacterial Serine Acetyltransferase in the Quest for Novel Potential Antibacterial Adjuvants” (Pharmaceuticals, 2021).
“Also recorded” adds a separate entry of the source. Read-outs that look alike come from different tables or passages of the source.

Legend:
[1] = target: T1, SAT from Salmonella enterica serovar Typhimurium (Salmonella typhimurium, UniProt P29847); experiment: StSAT enzyme activity assay (spectrophotometric indirect assay with Ellman's reagent); type: biochemical; settings: for inhibition at 1000 µM: compound at fixed 1 mM, both substrates equal to Km, 5% DMSO
T1 construct: trxA (thioredoxin) fusion; made in house
T1 sequence (P29847 whole entry, the tested form may be a part): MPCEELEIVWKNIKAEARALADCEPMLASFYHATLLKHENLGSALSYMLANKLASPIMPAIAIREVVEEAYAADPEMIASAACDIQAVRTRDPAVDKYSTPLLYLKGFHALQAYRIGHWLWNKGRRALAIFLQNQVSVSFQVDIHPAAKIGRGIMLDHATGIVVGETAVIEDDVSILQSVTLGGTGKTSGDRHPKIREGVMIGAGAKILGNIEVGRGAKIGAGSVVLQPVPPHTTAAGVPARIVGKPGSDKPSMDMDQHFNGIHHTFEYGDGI
Experimental: Since the primary structure of SAT is highly conserved among bacteria, [38] the virtual screening of our in-house library was performed using the available crystal structures of EcSAT (pdb code: 1T3D) and HiSAT (pdb code: 1SSM), setting the experimental parameters as previously reported by us. After this preliminary analysis, a total of 7 compounds were identified and selected to be evaluated on the recombinant enzyme from S. typhimurium. The enzyme used in these assays has a Km,Ser = 1.07 ± 0.15 mM, a Km,AcCoA = 0.17 ± 0.04 mM, kcat = 3813 ± 169 min^−1 [37].
SAT from Salmonella enterica serovar Typhimurium was expressed as trxA fusion protein as previously described and was more than 95% pure based on SDS-PAGE analysis. The enzyme activity was measured by a spectrophotometric indirect assay that exploits the signal at 412 nm generated by 5,5’-Dithiobis(2-nitrobenzoic acid (Ellmn’s reagent) reduction by the reaction product coenzyme A [37]. A total of 5% DMSO was present in all the assays and was proven not to perturb enzyme activity (data not shown). The concentration of substrates was set equal to Km in order to improve the sensitivity of the assay for both competitive and uncompetitive mechanism of inhibition. The dependence of the relative reaction rate on the concentration of compounds was fitted to Equation (1) to calculate the IC50: vi/v0=1/1+[I]/IC50
The inhibition mechanism was determined by fitting the dependence of the initial reaction rate on the concentration of acetyl CoA (at fixed, 1 mM L-Ser concentration) in the presence of different concentrations of inhibitor ( 1/3IC50≥[inhibitor]≤3IC50 ) to the equation for competitive, uncompetitive and non-competitive mechanisms. The equation that fits a competitive mechanism (Equation (2)) was used to calculate Ki for compound 5: v0=Vmax·[acetyl−CoA]/[acetyl−CoA]+(Km·α) where α=1+([comp5]/Ki) .

[2] = tested on: M. tuberculosis; parameters: method as in PMID 28749666; settings: cited from earlier work
[3] = Chemical stability in DMSO solution by 1H NMR at different time points; type: physicochemical; settings: 5 mg in 500 μL DMSO-d6, room temperature
Experimental: Upon noticing changes in the appearance of the DMSO solution over time at room temperature, we deemed it of interest to investigate the chemical stability of the compounds. Therefore, in order to evaluate it, ^1H NMR analysis at different time points (1 h, 2.5 h, and 20 h) of the DMSO solution (5 mg in 500 μL of DMSO-d6) was performed (Supporting Information). Since the time required to observe changes in the colour of the solution was dependent of the substituent at position R2 of series 22, to establish the effect of the substituent on the overall stability of the compound, analogue 22a (R2 = phenyl) which contains the non-substituted phenyl group, analogue 22b (R2 = 3,5-dichlorophenyl), substituted with an EWG and analogue 22d (R2 = 3,5-dimethylphenyl) substituted with an electron donating group (EDG) were selected to perform the chemical stability studies. The stability of the compounds increases in the following order: 22b (stability in DMSO < 2.5 h) < 22a (stability in DMSO < 20 h) < 22d (stability in DMSO < 7 days). Thus, it is possible to conclude that EWGs like the simple phenyl or the phenyl replaced with two chlorines produce fewer stable molecules. On the other hand, the phenyl replaced with EDGs contributes to the overall stability of the molecule. It is hypothesised that the mild oxidative properties of DMSO are able to interfere with the oxazole scaffold, which leads to the opening of the ring and then full degradation of the compound in study.

[4] = tested on: E. coli ATCC25922; experiment: Minimal Inhibitory Concentration (MIC) assay; type: cell-based; settings: Escherichia coli; E. coli ATCC25922, Mueller Hinton broth (MHB)
[5] = tested on: S. Typhimurium ATCC14028; experiment: Minimal Inhibitory Concentration (MIC) assay; type: cell-based
[6] = tested on: StOASS; parameters: method as in PMID 26894308; settings: cited from earlier work
[7] = Table 2, analogues of compound 5, * = estimated due to solubility issues, read-out: IC50
[8] = values as quoted in the SAR discussion text, read-out: IC50
[9] = Table 3, synthesised compounds, read-out: StSAT IC50
[10] = StSAT IC50, Table 3, synthesised compounds

## Cc1ccc(C(=O)O)c(N)n1 [Compound 1]
[1]
  inhibition at 1000 µM: 19.4 ± 1%

## O=C(O)C1C2C=CC(C2)C1C(=O)O (centres unmarked) [Compound 2]
[1]
  inhibition at 1000 µM: 34.9 ± 6%

## CC1CN(C(=O)c2cc3ccccc3[nH]2)CC(C)N1 (centres unmarked) [Compound 3]
[1]
  inhibition at 1000 µM: 31.4 ± 5%

## CC(=O)NC(C(=O)O)C(=O)O [Compound 4]
[1]
  inhibition at 1000 µM: 18.7 ± 6%

## Cc1ccc(Nc2nc(-c3cc(C(=O)O)no3)cs2)cc1 [Compound 5]
[2]
  activity toward M. tuberculosis: inactive
[1]; Table 1, virtual screening hits, substrates equal to Km, read-out: IC50
  IC50: 0.11 mM
[1]; competitive towards acetyl-CoA, fixed 1 mM L-Ser
  Ki: 64 ± 12 µM
[1]; inhibition mechanism, varied acetyl CoA at fixed 1 mM L-Ser
  Mechanism: competitive inhibitor; also recorded: Competitive with AcCoA

## CCn1c2ccccc2c2cc(CNC)ccc21 [Compound 6]
[1]
  inhibition at 1000 µM: 23.6%

## O=C(O)[C@H]1C[C@@H]1c1ccccc1 [Compound 7]
[1]
  inhibition at 1000 µM: > 40%
[1]; virtual screening hit, value printed in mM (μM), read-out: IC50
  IC50: > 2 mM

## Cc1ccc(Nc2nc(-c3ccncc3)cs2)cc1 [Compound 8]
[1]; [7]
  IC50: > 0.4 mM

## COc1ccc(-c2cc(-c3csc(Nc4ccc(C)cc4)n3)on2)cc1 [Compound 9]
[1]; [7]
  IC50: 0.012 ± 0.002 mM

## Cc1ccc(Nc2nc(-c3cc(C(=O)NC45CC6CC(CC(C6)C4)C5)no3)cs2)cc1 [Compound 10]
[1]; [7]
  IC50: 0.009 ± 0.003 mM

## Cc1ccc(Nc2nc(-c3cc(C(N)=O)no3)cs2)cc1 [Compound 11]
[1]; [7]
  IC50: 0.026 ± 0.004 mM

## CNC(=O)c1cc(-c2csc(Nc3ccc(C)cc3)n2)on1 [Compound 12]
[1]; [8]
  IC50: 0.06 mM

## Cc1ccc(Nc2nc(-c3cc(C(=O)Nc4ccccc4)no3)cs2)cc1 [Compound 13]
[1]; [7]
  IC50: 0.016 ± 0.003 mM
[1]; [8]
  IC50: 0.0163 mM

## CCOC(=O)c1cc(-c2csc(Nc3ccc(C)cc3)n2)on1 [Compound 14]
[1]; [7]
  IC50: ~0.01 mM
[1]; [8]
  IC50: 0.01 mM

## CCOC(=O)c1cc(-c2csc(Nc3cc(Cl)cc(Cl)c3)n2)on1 [Compound 15]
[1]; [7]
  IC50: 0.018 ± 0.002 mM

## Cc1ccc(Nc2nc(-c3cc(C(=O)O)nn3C)cs2)cc1 [Compound 16]
[1]; [7]
  IC50: 0.184 ± 0.013 mM

## Cn1nc(C(=O)O)cc1-c1csc(Nc2cc(Cl)cc(Cl)c2)n1 [Compound 17]
[1]; [7]
  IC50: 0.021 ± 0.005 mM

## Cc1ccc(Nc2nc(-c3cc(C(=O)O)no3)co2)cc1 [Compound 18]
[1]; 18 vs. 5, from IC50
  improvement in the affinity compared to the 2-aminothiazole counterpart: > 40 fold
[1]; [8]
  IC50: 0.0026 mM

## CCOC(=O)c1cc(-c2coc(Nc3ccc(C)cc3)n2)on1 [Compound 19]
[1]; [7]
  IC50: 0.007 ± 0.002 mM
[1]; [8]
  IC50: 0.0073 mM

## O=C(O)c1cc(-c2csc(Nc3cc(Cl)cc(Cl)c3)n2)on1 [Compound 20]
[1]; [7]
  IC50: 0.011 ± 0.001 mM

## CCOC(=O)c1cc(-c2coc(Nc3ccccc3)n2)on1 [Compound 21a, Ethyl 5-(2-(phenylamino)oxazol-4-yl)isoxazole-3-carboxylate]
[1]; [9]
  IC50: 0.00268 ± 0.00027 mM

## CCOC(=O)c1cc(-c2coc(Nc3cc(Cl)cc(Cl)c3)n2)on1 [Compound 21b, Ethyl 5-(2-((3,5-dichlorophenyl)amino)oxazol-4-yl)isoxazole-3-carboxylate]
[1]; [9]
  IC50: 0.00252 ± 3e-05 mM

## CCOC(=O)c1cc(-c2coc(Nc3ccc(F)cc3)n2)on1 [Compound 21c, Ethyl 5-(2-((4-fluorophenyl)amino)oxazol-4-yl)isoxazole-3-carboxylate]
[1]; [9]
  IC50: 0.00304 ± 0.00037 mM

## CCOC(=O)c1cc(-c2coc(Nc3ccncc3)n2)on1 [Compound 21e, Ethyl 5-(2-(pyridin-4-ylamino)oxazol-4-yl)isoxazole-3-carboxylate]
[1]; [9]
  IC50: 0.00395 ± 0.00065 mM

## O=C(O)c1cc(-c2coc(Nc3ccccc3)n2)on1 [Compound 22a, 5-(2-(phenylamino)oxazol-4-yl)isoxazole-3-carboxylic acid]
[3]
  stability in DMSO: < 20 h
[1]; [10]
  IC50: 0.00154 ± 0.00033 mM

## O=C(O)c1cc(-c2coc(Nc3cc(Cl)cc(Cl)c3)n2)on1 [Compound 22b, 5-(2-((3,5-dichlorophenyl)amino)oxazol-4-yl)isoxazole-3-carboxylic acid]
[3]
  stability in DMSO: < 2.5 h
[1]; [10]
  IC50: 0.00803 ± 0.00018 mM

## O=C(O)c1cc(-c2coc(Nc3ccc(F)cc3)n2)on1 [Compound 22c, 5-(2-((4-fluorophenyl)amino)oxazol-4-yl)isoxazole-3-carboxylic acid]
[1]; [9]
  IC50: 0.00251 ± 0.00034 mM

## Cc1cc(C)cc(Nc2nc(-c3cc(C(=O)O)no3)co2)c1 [Compound 22d, 5-(2-((3,5-dimethylphenyl)amino)oxazol-4-yl)isoxazole-3-carboxylic acid]
[3]
  stability in DMSO: < 170 h
[4]
  MIC: > 128 µM
[5]; S. Typhimurium ATCC14028, M9 medium deprived of cysteine
  MIC: > 128 µM
[5]; Salmonella enterica, S. Typhimurium ATCC14028, Mueller Hinton broth (MHB)
  MIC: > 128 µM
[1]; [9]
  IC50: 0.00424 ± 0.00011 mM

## O=C(O)c1cc(-c2coc(Nc3ccncc3)n2)on1 [Compound 22e, 5-(2-(pyridin-4-ylamino)oxazol-4-yl)isoxazole-3-carboxylic acid]
[1]; [9]
  IC50: 0.012 ± 0.00125 mM

## Cc1ccc(CC2(C(=O)O)CC2c2ccccc2)cc1 (centres unmarked) [UPAR415]
[6]
  mechanism of OASS inhibition: competitive inhibitor
